PubChem BioAssay (NCI)
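In this assay, cells in 96-well plates receive the compound at five concentrations for 48 hours. Endpoints are linearly interpolated between the surrounding concentrations. The concentration for 50% growth inhibition is given as GI50. TGI: total growth inhibition.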

What was measured:
Experiment in all cases: NCI-60 cell line screen, 48 h
COLO 205 colon = test system: COLO 205 colon
K-562 leukemia = test system: K-562 leukemia
NCI-H460 lung = test system: NCI-H460 lung
SK-MEL-2 melanoma = test system: SK-MEL-2 melanoma
SNB-19 CNS = test system: SNB-19 CNS
TK-10 renal = test system: TK-10 renal
U251 CNS = test system: U251 CNS
UACC-257 melanoma = test system: UACC-257 melanoma
UACC-62 melanoma = test system: UACC-62 melanoma
SR leukemia = test system: SR leukemia

| SMILES | TGI (COLO 205 colon) | TGI (K-562 leukemia) | TGI (NCI-H460 lung) | TGI (SK-MEL-2 melanoma) | TGI (SNB-19 CNS) | TGI (TK-10 renal) | TGI (U251 CNS) | TGI (UACC-257 melanoma) | TGI (UACC-62 melanoma) | GI50 (COLO 205 colon) | GI50 (NCI-H460 lung) | GI50 (SK-MEL-2 melanoma) | GI50 (SNB-19 CNS) | GI50 (SR leukemia) | TGI (SR leukemia) | GI50 (TK-10 renal) | GI50 (U251 CNS) | GI50 (UACC-257 melanoma) | GI50 (UACC-62 melanoma) | GI50 (K-562 leukemia) |
| --- | --- | --- | --- | --- | --- | --- | --- | --- | --- | --- | --- | --- | --- | --- | --- | --- | --- | --- | --- | --- |
| CC(C)(C)c1cc(CCCCCCCC2(CCCCCCCc3cc(C(C)(C)C)cc(C(C)(C)C)c3)OC(COCCOCCCCCC#N)C(COCCOCCCCCC#N)O2)cc(C(C)(C)C)c1 (stereo not given) | > 100 µM | > 100 µM | > 100 µM | > 100 µM | > 100 µM | > 100 µM | > 100 µM | > 100 µM | > 100 µM |  |  |  |  |  |  |  |  |  |  |  |
| C=C1C(=O)O[C@H]2[C@H](OC(C)=O)[C@@H](C)CCCC3(C)OC3CCC3(CO3)[C@H](O)C[C@@H]12 (stereo not given in full) | 65.6 µM |  | 36 µM | > 100 µM | 83.1 µM | 21.2 µM | 22.1 µM | 49.9 µM | 24.1 µM | 3.8 µM | 12.9 µM | 26.3 µM | 25.7 µM | 0.568 µM | 2.26 µM | 7.39 µM | 10.4 µM | 17.3 µM | 11.8 µM |  |
| CC1(C)N=C(N)N=C(N)N1c1ccc(OCCCNC(=O)Nc2cccc(S(=O)(=O)F)c2)c(Cl)c1 | > 100 µM | > 100 µM | > 100 µM |  | > 100 µM |  | > 100 µM | > 100 µM | > 100 µM | 12.5 µM | 0.511 µM |  | 1.22 µM | 0.637 µM | > 100 µM |  | 0.777 µM | > 100 µM | 1.43 µM | 0.598 µM |
| CCN(CC)CC(C)C(=O)/C=C/c1ccc(C)cc1 (stereo not given) | 3.02 µM | > 100 µM | 17 µM |  | 30.5 µM | 3.69 µM | 3.43 µM | 4.1 µM | 12.2 µM |  |  |  |  |  | 8.19 µM |  |  |  |  |  |
| COc1ccc(C(=O)c2c3cc(OC)c(OC)c(OC)c3cc[n+]2C)cc1 |  | > 100 µM | > 100 µM | 52.2 µM | > 100 µM | > 100 µM | > 100 µM |  |  |  |  |  |  |  | > 100 µM |  |  |  |  |  |
| CCOc1cn(C2OC(CO)C(O)C2O)c(=O)[nH]c1=O (stereo not given) | > 100 µM | > 100 µM | > 100 µM | > 100 µM | > 100 µM | > 100 µM | 43.7 µM | > 100 µM | > 100 µM |  |  |  |  |  |  |  |  |  |  |  |
| O=C1C(=C([O-])c2ccccc2)C(=O)c2ccccc21.O=C1C(=C([O-])c2ccccc2)C(=O)c2ccccc21.[Mn+2] |  |  |  | > 100 µM | > 100 µM | > 100 µM |  | 48.4 µM | > 100 µM |  |  | > 100 µM | 76.7 µM |  |  | > 100 µM |  | 22.6 µM | 5.48 µM |  |
| COc1cc(/C=C/c2cc(/C=C/c3ccc(O)c(OC)c3)n(C(=O)Nc3ccccc3Cl)n2)ccc1O | 2.91 µM | 3.11 µM | 1.25 µM | 1.6 µM | 4.23 µM | 3.6 µM | 1.51 µM | 3.71 µM | 2.5 µM | 1.49 µM | 0.331 µM | 0.397 µM | 0.743 µM |  |  | 0.601 µM | 0.384 µM | 1.02 µM | 0.425 µM | 0.301 µM |
| N#CCC(=O)N/N=C1/C(=O)N(c2cc(Cl)ccc2Cl)C(=O)C(=O)C1c1nc2ccccc2s1 (stereo not given) | > 100 µM | > 100 µM | > 100 µM | > 100 µM | > 100 µM | > 100 µM | > 100 µM | > 100 µM | 93.2 µM |  |  |  |  |  |  |  |  |  |  |  |
